Data taken from patent US6737383B1, “Herbicidal oxadiazolidines” (priority 1999, dated 2004).

Columns and labels:
[1] = system: surinam grass; assay: Test B pre/postemergence surinam grass; assay type: in vivo, Brachiaria decumbens
Outline: (§1)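 Herbicidal effect was estimated by eye on a ten-point control scale after plants spent twelve to sixteen days in a greenhouse following soil or foliar treatment. Foliar sprays targeted plants at one to four leaves; all doses were formulated in a non-phytotoxic solvent with surfactant.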

[2] = system: velvetleaf; assay: Test B pre/postemergence velvetleaf; assay type: in vivo, Abutilon theophrasti
Outline: as §1

[3] = system: cocklebur; assay: Test B pre/postemergence cocklebur; assay type: in vivo, Xanthium strumarium
Outline: as §1

[4] = system: morningglory; assay: Test B pre/postemergence morningglory; assay type: in vivo, Ipomoea hederacea
Outline: as §1

[5] = system: soybean; assay: Test B pre/postemergence soybean; assay type: in vivo, Glycine max
Outline: as §1

[6] = system: pigweed; assay: Test B pre/postemergence pigweed; assay type: in vivo, Amaranthus retroflexus
Outline: as §1

[7] = system: corn; assay: Test B pre/postemergence corn; assay type: in vivo, Zea mays
Outline: as §1

[8] = system: wheat; assay: Test B pre/postemergence wheat; assay type: in vivo, Triticum aestivum
Outline: as §1

[9] = system: giant foxtail; assay: Test B pre/postemergence giant foxtail; assay type: in vivo, Setaria faberii
Outline: as §1

[10] = system: blackgrass; assay: Test B pre/postemergence blackgrass; assay type: in vivo, Alopecurus myosuroides
Outline: as §1

[11] = system: purple nutsedge; assay: Test B pre/postemergence purple nutsedge; assay type: in vivo, Cyperus rotundus
Outline: as §1

[12] = system: rape; assay: Test B pre/postemergence rape; assay type: in vivo, Brassica napus
Outline: as §1

[13] = system: bedstraw; assay: Test B pre/postemergence bedstraw; assay type: in vivo, Galium aparine
Outline: as §1

[14] = system: crabgrass; assay: Test B pre/postemergence crabgrass; assay type: in vivo, Digitaria sanguinalis
Outline: as §1

[15] = system: wild oat; assay: Test B pre/postemergence wild oat; assay type: in vivo, Avena fatua
Outline: as §1

[16] = system: sugar beet; assay: Test B pre/postemergence sugar beet; assay type: in vivo, Beta vulgaris
Outline: as §1

[17] = Postemergence, Rate 62 g/ha, scale of 0 to 10, 0 is no effect, 10 is complete control
[18] = Postemergence, Rate 125 g/ha, scale 0 to 10, 0 is no effect, 10 is complete control
[19] = Postemergence, Rate 500 g/ha, scale 0 to 10, 0 is no effect, 10 is complete control
[20] = Preemergence, Rate 62 g/ha, scale 0 to 10 (0 no effect, 10 complete control)
[21] = Preemergence, Rate 125 g/ha, scale 0 to 10, 0 is no effect, 10 is complete control
[22] = Preemergence, Rate 500 g/ha, scale of 0 to 10 where 0 is no effect and 10 is complete control
[23] = Rate 250 g/ha, Postemergence, scale of 0 to 10 where 0 is no effect and 10 is complete control

CC(C)N(C(=O)n1oc(=O)n(CCCCF)c1=O)c1ccc(Cl)cc1 [Compound 551]
10: Redroot pigweed plant response rating (0 to 10 scale) ([6]; Preemergence, Rate 250 g/ha) | Redroot pigweed plant response rating [6, 22] | Giant foxtail plant response rating [9, 20] | Giant foxtail plant response rating [9, 21] | Giant foxtail plant response rating (0 to 10 scale) ([9]; Preemergence, Rate 250 g/ha) | Giant foxtail plant response rating [9, 22] | Bedstraw plant response rating [13, 22] | Crabgrass plant response rating (0 to 10 scale) ([14]; Preemergence, Rate 250 g/ha) | Crabgrass plant response rating [14, 22]
2: Plant response rating, B. signalgrass [1, 23] | Velvetleaf plant response rating (0 to 10 scale) ([2]; Preemergence, Rate 250 g/ha) | Morningglory plant response rating [4, 18] | Soybean plant response rating [5, 17] | Sugarbeets plant response rating [16, 17] | Sugarbeets plant response rating [16, 20]
0: B. signalgrass plant response rating [1, 17] | B. signalgrass plant response rating [1, 18] | Velvetleaf plant response rating [2, 17] | Velvetleaf plant response rating [2, 20] | Velvetleaf plant response rating [2, 21] | Cocklebur plant response rating [3, 17] | Cocklebur plant response rating [3, 18] | Plant response rating, Cocklebur [3, 19] | Cocklebur plant response rating [3, 20] | Cocklebur plant response rating [3, 21] | Cocklebur plant response rating (0 to 10 scale) ([3]; Preemergence, Rate 250 g/ha) | Cocklebur plant response rating [3, 22] | Plant response rating, Cocklebur [3, 23] | Morningglory plant response rating [4, 20] | Morningglory plant response rating [4, 21] | Morningglory plant response rating (0 to 10 scale) ([4]; Preemergence, Rate 250 g/ha) | Morningglory plant response rating [4, 22] | Soybean plant response rating [5, 20] | Soybean plant response rating [5, 21] | Soybean plant response rating (0 to 10 scale) ([5]; Preemergence, Rate 250 g/ha) | Soybean plant response rating [5, 22] | Redroot pigweed plant response rating [6, 17] | Corn plant response rating [7, 17] | Corn plant response rating [7, 18] | Plant response rating, Corn [7, 19] | Corn plant response rating [7, 20] | Corn plant response rating [7, 21] | Corn plant response rating (0 to 10 scale) ([7]; Preemergence, Rate 250 g/ha) | Plant response rating, Corn [7, 23] | Wheat plant response rating [8, 17] | Wheat plant response rating [8, 20] | Wheat plant response rating [8, 21] | Plant response rating, Wheat [8, 23] | Giant foxtail plant response rating [9, 17] | Plant response rating, Nutsedge [11, 19] | Nutsedge plant response rating [11, 20] | Nutsedge plant response rating [11, 21] | Nutsedge plant response rating (0 to 10 scale) ([11]; Preemergence, Rate 250 g/ha) | Nutsedge plant response rating [11, 22] | Rape plant response rating [12, 20] | Bedstraw plant response rating [13, 17] | Bedstraw plant response rating [13, 18] | Crabgrass plant response rating [14, 17] | Wild oats plant response rating [15, 17] | Wild oats plant response rating [15, 20] | Plant response rating, Wild oats [15, 23]
5: Corn plant response rating [7, 22] | Plant response rating, Giant foxtail [9, 19] | Plant response rating, Giant foxtail [9, 23] | Plant response rating, Rape [12, 19] | Plant response rating, Wild oats [15, 19] | Plant response rating, Sugarbeets [16, 23]
8: Redroot pigweed plant response rating [6, 20] | Bedstraw plant response rating [13, 21] | Plant response rating, Crabgrass [14, 23] | Plant response rating, Sugarbeets [16, 19]
1: Morningglory plant response rating [4, 17]
7: Plant response rating, Redroot pigweed [6, 19] | Blackgrass plant response rating [10, 18] | Plant response rating, Blackgrass [10, 19] | Blackgrass plant response rating [10, 21] | Plant response rating, Blackgrass [10, 23] | Rape plant response rating [12, 18] | Plant response rating, Rape [12, 23] | Sugarbeets plant response rating (0 to 10 scale) ([16]; Preemergence, Rate 250 g/ha)
6: Wheat plant response rating [8, 22] | Crabgrass plant response rating [14, 18] | Sugarbeets plant response rating [16, 21]
4: Plant response rating, B. signalgrass [1, 19] | B. signalgrass plant response rating [1, 20] | Velvetleaf plant response rating [2, 22] | Plant response rating, Morningglory [4, 23] | Blackgrass plant response rating [10, 17] | Plant response rating, Bedstraw [13, 23]
9: B. signalgrass plant response rating [1, 21] | B. signalgrass plant response rating (0 to 10 scale, 0 is no effect, 10 is complete control) ([1]; Preemergence, Rate 250 g/ha) | B. signalgrass plant response rating [1, 22] | Redroot pigweed plant response rating [6, 21] | Blackgrass plant response rating (0 to 10 scale) ([10]; Preemergence, Rate 250 g/ha) | Blackgrass plant response rating [10, 22] | Rape plant response rating [12, 22] | Plant response rating, Bedstraw [13, 19] | Plant response rating, Crabgrass [14, 19] | Crabgrass plant response rating [14, 20] | Crabgrass plant response rating [14, 21] | Wild oats plant response rating [15, 22] | Sugarbeets plant response rating [16, 22]
3: Plant response rating, Velvetleaf [2, 19] | Plant response rating, Velvetleaf [2, 23] | Plant response rating, Morningglory [4, 19] | Plant response rating, Soybean [5, 19] | Plant response rating, Soybean [5, 23] | Plant response rating, Redroot pigweed [6, 23] | Plant response rating, Wheat [8, 19] | Wheat plant response rating (0 to 10 scale) ([8]; Preemergence, Rate 250 g/ha) | Blackgrass plant response rating [10, 20] | Rape plant response rating [12, 17] | Rape plant response rating [12, 21] | Rape plant response rating (0 to 10 scale) ([12]; Preemergence, Rate 250 g/ha) | Wild oats plant response rating [15, 21] | Wild oats plant response rating (0 to 10 scale) ([15]; Preemergence, Rate 250 g/ha)
